# ChEMBL document CHEMBL1142837, “Synthesis of new carbo- and heterocyclic analogues of 8-HETE and evaluation of their activity towards the PPARs” (Bioorg Med Chem Lett, 2005)
# Assays:
# [1] = target: T1, Peroxisome proliferator-activated receptor gamma (Homo sapiens, UniProt P37231); assay: In vitro effective concentration against human peroxisome proliferator activated receptor gamma/Gal4 in cell-based transactivation assay; type: functional
# T1 sequence (P37231 whole entry): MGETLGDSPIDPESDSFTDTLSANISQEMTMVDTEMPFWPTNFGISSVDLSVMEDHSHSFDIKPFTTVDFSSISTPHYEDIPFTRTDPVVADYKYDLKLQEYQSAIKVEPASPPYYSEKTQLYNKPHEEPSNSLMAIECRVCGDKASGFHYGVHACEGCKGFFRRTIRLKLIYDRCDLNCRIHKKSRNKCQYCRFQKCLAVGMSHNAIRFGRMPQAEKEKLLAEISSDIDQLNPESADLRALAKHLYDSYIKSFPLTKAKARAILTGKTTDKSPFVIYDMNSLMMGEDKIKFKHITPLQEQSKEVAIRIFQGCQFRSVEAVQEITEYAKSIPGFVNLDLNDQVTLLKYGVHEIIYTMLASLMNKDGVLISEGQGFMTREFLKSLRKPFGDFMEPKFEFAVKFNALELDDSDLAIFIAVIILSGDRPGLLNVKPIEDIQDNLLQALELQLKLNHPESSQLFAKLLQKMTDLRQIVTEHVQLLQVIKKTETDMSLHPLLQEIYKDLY
# [2] = target: T1, Peroxisome proliferator-activated receptor gamma
# [3] = target: T2, Peroxisome proliferator-activated receptor alpha (Homo sapiens, UniProt Q07869); assay: In vitro effective concentration against human peroxisome proliferator activated receptor alpha/Gal4 in transactivation assay
# T2 sequence (Q07869 whole entry): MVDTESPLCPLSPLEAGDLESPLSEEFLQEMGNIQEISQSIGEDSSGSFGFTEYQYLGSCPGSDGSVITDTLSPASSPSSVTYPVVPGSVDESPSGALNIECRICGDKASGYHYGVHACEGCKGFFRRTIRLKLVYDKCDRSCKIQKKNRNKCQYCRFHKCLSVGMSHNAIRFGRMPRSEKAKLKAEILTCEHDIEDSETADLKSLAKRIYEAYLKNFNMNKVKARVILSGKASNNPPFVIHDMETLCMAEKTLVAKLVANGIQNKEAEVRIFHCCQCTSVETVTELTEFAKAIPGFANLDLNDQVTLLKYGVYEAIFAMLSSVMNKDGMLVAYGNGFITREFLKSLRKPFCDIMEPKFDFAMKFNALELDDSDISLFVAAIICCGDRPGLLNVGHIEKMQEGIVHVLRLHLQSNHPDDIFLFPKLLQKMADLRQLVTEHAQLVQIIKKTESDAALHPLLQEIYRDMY
EC50 [1] [nM],Ki [2] [nM],EC50 [3] [nM],Compound
> 10000,4390,–,CCCCCOc1cc2ccccc2cc1C(O)CC#CCCCC(=O)O (stereo unspecified)
> 10000,515,> 10000,CCCCCOc1ccccc1C(O)CCCCCCC(=O)OC (stereo unspecified)
1500,1030,1190,CCCCCOc1cc2ccccc2cc1C(O)CC=CCCCC(=O)O (stereo unspecified)
617,947,114,CCCCCOc1nc2ccccc2cc1C(O)CC#CCCCC(=O)O (stereo unspecified)
1200,> 10000,1090,CCCCCOc1nc2ccccc2cc1C(O)CC=CCCCC(=O)O (stereo unspecified)
> 10000,> 10000,> 10000,CCCCCOc1ncccc1C(O)CCCCCCC(=O)OC (stereo unspecified)
28,3760,> 10000,CCCCCOc1ccccc1C(O)CC=CCCCC(=O)OC (stereo unspecified)
> 10000,> 10000,1540,CCCCCOc1ncccc1C(O)CC#CCCCC(=O)O (stereo unspecified)
> 10000,> 10000,> 10000,CCCCCOc1nc2ccccc2cc1C(O)CCCCCCCC(=O)OC (stereo unspecified)
642,1050,173,CCCCCOc1ccccc1C(O)CC#CCCCC(=O)OC (stereo unspecified)

# The remaining lines, values behind:
Compound,EC50 [1] [nM],Ki [2] [nM],EC50 [3] [nM]
CCCCCOc1ccccc1C(O)CC=CCCCC(=O)O (stereo unspecified),340,> 10000,> 10000
CCCCCOc1ncccc1C(O)C/C=C/CCCC(=O)OC (stereo unspecified),> 10000,> 10000,> 10000
CCCCCOc1cc2ccccc2cc1C(O)CCCCCCCC(=O)OC (stereo unspecified),1360,579,1530
CCCCCOc1ncccc1C(O)CCCCCCC(=O)O (stereo unspecified),> 10000,> 10000,> 10000
CCCCCOc1ncccc1C(O)CC#CCCCC(=O)OC (stereo unspecified),549,> 10000,1630
CCCCCOc1ccccc1C(O)CC#CCCCC(=O)O (stereo unspecified),> 10000,> 10000,> 10000
CCCCCOc1nc2ccccc2cc1C(O)CC#CCCCC(=O)OC (stereo unspecified),1410,> 10000,262
CCCCCOc1cc2ccccc2cc1C(O)CC#CCCCC(=O)OC (stereo unspecified),> 10000,695,1140
CCCCCOc1ncccc1C(O)C/C=C/CCCC(=O)O (stereo unspecified),> 10000,> 10000,> 10000
CCCCCOc1ccccc1C(O)CCCCCCC(=O)O (stereo unspecified),> 10000,6690,> 10000
CCCCCOc1cc2ccccc2cc1C(O)C/C=C/CCCC(=O)OC (stereo unspecified),> 10000,718,1450
CCCCCOc1nc2ccccc2cc1C(O)CCCCCC(=O)O (stereo unspecified),1570,2860,1400
CCCCCOc1nc2ccccc2cc1C(O)CC=CCCCC(=O)OC (stereo unspecified),1550,1330,1300
CCCCCOc1cc2ccccc2cc1C(O)CCCCCCC(=O)O (stereo unspecified),> 10000,969,1480
